Data from ChEMBL document CHEMBL5038568, “Bioactive Cyclization Optimizes the Affinity of a Proprotein Convertase Subtilisin/Kexin Type 9 (PCSK9) Peptide Inhibitor” (J Med Chem, 2021).
Numbered stars: 1 amine (or outer) side, 2 acyl side, 3 side chain; on linkers, the order of the positions; unused ones are H or OH. Bridge positions count the residues as written; N and C are the ends. Peptide text beside a SMILES is read from it. X1 = N[C@@H](CS[*:1])C(=O)NC(=O)[C@H](CO)N[*:2]

What was measured:
[1] = target: T1, Proprotein convertase subtilisin/kexin type 9 (Homo sapiens, UniProt Q8NBP7); test: Binding affinity to human PCSK9 assessed as dissociation constant
HepG2 = test: Cytotoxicity against human HepG2 cells assessed as reduction in cell viability at 10 uM incubated for 48 hrs by MTT assay; type: toxicity, cell-based; details: hepg2, 48 h
[2] = target: T1, Proprotein convertase subtilisin/kexin type 9; test: Inhibition of PCSK9 in human HepG2 cells assessed as restoration of PCSK9-induced reduction in fluorescent LDL uptake at 50 nM incubated for 2 hrs by fluorescence plate reader analysis (Rvb= 46.1 +/- 5.6%); type: cell-based; design: scale not given: the % may be the effect or the level left
[3] = target: T1, Proprotein convertase subtilisin/kexin type 9; test: Binding affinity to full length C-terminal Avi/His6-tagged human PCSK9 expressed in Expi293 cells assessed as change in enthalpy by isothermal titration calorimetric analysis
[4] = target: T1, Proprotein convertase subtilisin/kexin type 9; test: Binding affinity to full length C-terminal Avi/His6-tagged human PCSK9 expressed in Expi293 cells assessed as change in entropy by isothermal titration calorimetric analysis
[5] = target: T1, Proprotein convertase subtilisin/kexin type 9; test: Inhibition of tEGF-A[HA] binding to biotinylated human PCSK9 incubated for 2 hrs by ELISA based competitive binding assay
[6] = target: T1, Proprotein convertase subtilisin/kexin type 9; test: Binding affinity to full length C-terminal Avi/His6-tagged human PCSK9 expressed in Expi293 cells assessed as dissociation rate constant (Koff) by surface plasmon resonance assay
[7] = target: T1, Proprotein convertase subtilisin/kexin type 9; test: Binding affinity to full length C-terminal Avi/His6-tagged human PCSK9 expressed in Expi293 cells assessed as equilibrium dissociation constant by surface plasmon resonance assay
[8] = target: T1, Proprotein convertase subtilisin/kexin type 9; test: Inhibition of PCSK9 in human HepG2 cells assessed as restoration of surface LDLR level at 50 nM incubated for 2 hrs by Western blot analysis (Rvb= 37.5 +/- 13.9%); type: cell-based; design: scale not given: the % may be the effect or the level left

Structure (SMILES) | Kd [1] | Activity (HepG2) | Activity [2] | deltaH [3] | deltaS [4] | IC50 [5] | K [6] | Kd [7] | Activity [8]
CC(C)C[C@H](NC(=O)[C@H](Cc1ccc(O)cc1)NC(=O)[C@H](CCC(=O)O)NC(=O)[C@H](CCC(=O)O)NC(=O)[C@H](Cc1c[nH]c2ccccc12)NC(=O)[C@H](CO)NC(=O)[C@@H](NC(=O)[C@H](Cc1ccccc1)NC(=O)[C@@H](NC(=O)[C@@H](N)[C@@H](C)O)C(C)C)[C@@H](C)O)C(=O)N[C@@H](CC(=O)O)C(=O)N[C@@H](Cc1c[nH]c2ccccc12)C(=O)N[C@H](C(=O)O)C(C)C | 660 nM | – | – | – | – | – | – | – | –
CC(C)C[C@@H]1NC(=O)[C@H](Cc2ccc(O)cc2)NC(=O)[C@H](CCC(=O)O)NC(=O)[C@H](CCC(=O)O)NC(=O)[C@H](Cc2c[nH]c3ccccc23)NC(=O)[C@H](CO)NC(=O)[C@H]([C@@H](C)O)NC(=O)[C@H](Cc2ccccc2)NC(=O)[C@H](C(C)C)NC(=O)[C@H]([C@@H](C)O)NC(=O)[C@@H](N)CSSC[C@H](N)C(=O)NC(=O)[C@H](CO)NC(=O)[C@H](CC(N)=O)NC(=O)[C@H](CCCNC(=N)N)NC(=O)[C@@H]2CCCN2C(=O)[C@H](Cc2cnc[nH]2)NC(=O)[C@H](CC(C)C)NC(=O)[C@H](CC(N)=O)NC(=O)[C@H](CC(N)=O)NC(=O)[C@H](Cc2c[nH]c3ccccc23)NC(=O)[C@H](CC(=O)O)NC1=O (H-CTVFTSWEEYLDWNNLHPRN; linker 1-C via X1) | – | Non-Toxic | 97.1% | -37.3 kcal/mol | -89.5 cal/mol/K | 1260 nM | 0.02 s⁻¹ | 974 nM | 112%
